Measured values as given in publication PMC4155405 (Nature communications, 2014).
Like-named read-outs stand apart in the source and are kept apart here.

Experiments:
[1] = system: recombinant Wuhan95 (H3N2) PB1-V43I virus; assay type: cell-based, influenza A virus A/Wuhan/359/95 (H3N2)
[2] = in vitro; conditions: dog
[3] = system: recombinant virus Wuhan95 (H3N2); assay type: cell-based, influenza A virus A/Wuhan/359/95 (H3N2)
[4] = system: Wuhan95 (H3N2) wild-type virus; assay type: cell-based, influenza A virus A/Wuhan/359/95 (H3N2)
[5] = system: Wuhan95 (H3N2) PB1-V43I virus; assay type: cell-based, influenza A virus A/Wuhan/359/95 (H3N2)

| Structure (SMILES) | fold increase in EC50, PB1-V43I mutant versus wild-type H3N2 virus [1] | EC50 ([1]; read-out: EC50 (favipiravir, virus titre in MDCK cells)) | CC50 [2] | genomic mutation frequency [3] | fold higher virus titre of PB1-V43I virus compared to wild-type recombinant Wuhan95 virus [1] | EC50 ([1]; read-out: EC50 (ribavirin, virus titre in MDCK cells)) | fold higher mutational frequency of wild-type virus than PB1-V43I virus [4] | mutational frequency in the HA gene [4] | mutational frequency in the HA gene [5] |
| --- | --- | --- | --- | --- | --- | --- | --- | --- | --- |
| NC(=O)c1nc(F)c[nH]c1=O [favipiravir] | 2.24 fold | 24.6 µM |  |  |  |  |  |  |  |
| Nc1nc2c(ncn2[C@@H]2O[C@H](CO)[C@@H](O)[C@H]2O)c(=O)[nH]1 [guanosine] |  |  | 122 ± 0.11 µM |  |  |  |  |  |  |
| NC(=O)c1ncn([C@@H]2O[C@H](CO)[C@@H](O)[C@H]2O)n1 [ribavirin, 1-[(2R,3R,4S,5R)-3,4-dihydroxy-5-(hydroxymethyl)oxolan-2-yl]-1H-1,2,4-triazole-3-carboxamide] |  |  | 352 ± 0.04 µM | 15.74 per 10^4 nucleotide sequenced | 10.8 fold | 73.5 µM | 1.36 fold | 5.53 mutations per 10^4 nucleotides | 4.08 mutations per 10^4 nucleotides |
